# “And” between values parts separate entries of the source, which are not always exact repeats. Identical values can stand only once. Like-named read-outs stand apart in the source and are kept apart here.
# Target: canine TRPM8 (Canis lupus familiaris, UniProt Q1A7N1)
# Experiment: In Vitro Canine TRPM8 Functional Assay (intracellular Ca2+ fluorescence, icilin challenge)
# Format: cell-based
# Details: for IC50: icilin at ~80% maximal response
# Description: The functional activity of compounds of the formula (I) was determined by measuring changes in intracellular calcium concentration using a Ca^2+-sensitive fluorescent dye. The changes in fluorescent signal were monitored by a fluorescence plate reader, either a FLIPR™ (Molecular Devices) or FDSS (Hamamatsu).
# At 24 hrs prior to assay, HEK293 cells stably expressing canine TRPM8 were seeded in culture medium in black wall, clear-base poly-D-lysine coated 384-well plates (BD Biosciences, NJ, USA) and grown overnight in 5% CO2 at 37° C. On assay day, growth media was removed and cells were loaded with Calcium 3 Dye (Molecular Devices) for 35 min at 37° C., under 5% CO2 and then for 25 min at room temperature and atmosphere. Subsequently, cells were tested for agonist-induced increases in intracellular Ca^2+ levels using FLIPR™ or FDSS. Cells were challenged with a compound of the Formula (I) (at varying concentrations) and intracellular Ca^2+ was measured for 5 min prior to the addition of icilin to all wells to achieve a final concentration that produces approximately an 80% maximal response. EC50 or IC50 values for compounds of the present invention were determined from eight-point dose-response studies. Curves were generated using the average of quadruplicate wells for each data point.
# [1] = HEK293 cells stably expressing canine TRPM8
# [2] = HEK293, @ 0.2 μM, HEK293 cells stably expressing canine TRPM8, read-out: % Inh (%) @ 0.2 μM
# Chain of canine TRPM8 (Q1A7N1 1-1104): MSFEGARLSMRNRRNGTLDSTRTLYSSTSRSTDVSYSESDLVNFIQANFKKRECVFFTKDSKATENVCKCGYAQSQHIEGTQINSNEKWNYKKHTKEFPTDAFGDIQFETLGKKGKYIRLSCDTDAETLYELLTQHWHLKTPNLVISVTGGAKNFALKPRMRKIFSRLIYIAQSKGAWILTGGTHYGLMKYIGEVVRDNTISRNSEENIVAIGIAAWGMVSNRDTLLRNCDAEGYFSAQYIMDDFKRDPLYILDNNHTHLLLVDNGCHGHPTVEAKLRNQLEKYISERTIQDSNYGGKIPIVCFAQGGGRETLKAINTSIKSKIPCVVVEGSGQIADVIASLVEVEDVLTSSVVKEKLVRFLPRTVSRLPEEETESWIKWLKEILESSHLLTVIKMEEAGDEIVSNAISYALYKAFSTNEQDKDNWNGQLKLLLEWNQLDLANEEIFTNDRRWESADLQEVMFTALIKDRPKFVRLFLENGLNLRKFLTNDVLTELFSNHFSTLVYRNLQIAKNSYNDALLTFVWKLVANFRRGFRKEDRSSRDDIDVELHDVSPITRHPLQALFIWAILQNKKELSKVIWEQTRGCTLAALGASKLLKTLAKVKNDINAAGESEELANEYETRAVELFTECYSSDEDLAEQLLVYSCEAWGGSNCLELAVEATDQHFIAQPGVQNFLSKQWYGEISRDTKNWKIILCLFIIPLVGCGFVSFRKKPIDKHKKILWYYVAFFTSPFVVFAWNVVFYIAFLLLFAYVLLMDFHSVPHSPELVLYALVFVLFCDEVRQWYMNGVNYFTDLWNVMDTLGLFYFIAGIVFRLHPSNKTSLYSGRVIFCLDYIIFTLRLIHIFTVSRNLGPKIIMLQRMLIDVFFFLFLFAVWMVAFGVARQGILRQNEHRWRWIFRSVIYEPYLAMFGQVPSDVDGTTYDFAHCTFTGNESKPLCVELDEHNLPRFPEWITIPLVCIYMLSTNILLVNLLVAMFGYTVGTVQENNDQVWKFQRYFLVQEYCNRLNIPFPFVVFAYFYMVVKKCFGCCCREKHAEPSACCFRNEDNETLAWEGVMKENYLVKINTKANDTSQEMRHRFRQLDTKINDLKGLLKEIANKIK
SMILES,IC50 [1],inhibition at 0.2 µM [2],% Inh (%) @ 0.2 μM [1],"inhibition at 0.2 µM (HEK293, read-out: % Inh (%) @ 0.2 μM)"
COC(=O)c1ccc(S(=O)(=O)N(Cc2ccc(OC(F)(F)F)cc2)c2nc3ccccn3c2C(C)C)cc1 [Compound 108],10.4 nM,–,101%,–
O=S(=O)(c1ccccc1)N(Cc1ccc(F)c(C(F)(F)F)c1)c1nc2ccccn2c1C1CC1 [Compound 69],28.2 nM,–,101%,–
O=S(=O)(c1ccc(N2CCOCC2)nc1)N(Cc1ccc(F)c(C(F)(F)F)c1)c1nc2ccc(Cl)cn2c1Cl [Compound 78],–,26%,–,–
O=S(=O)(c1ccc(F)cc1)N(Cc1ccc(F)c(C(F)(F)F)c1)c1nc2ccccn2c1Cl [Compound 10],17.4 nM,–,–,–
CCc1c(N(CC2CC2)S(=O)(=O)c2ccccc2)nc2c(C(F)(F)F)cccn12 [Compound 65],62.8 nM,72%,–,–
Cc1ccc2nc(N(Cc3ccc(F)c(C(F)(F)F)c3)S(=O)(=O)c3ccccc3)c(C)n2c1 [Compound 40],22.2 nM,100%,–,–
Cc1c(N(Cc2cccc(OC(F)(F)F)c2)S(=O)(=O)c2ccccc2)nc2ccc(Cl)cn12 [Compound 45],39 nM,99%,–,–
O=S(=O)(c1ccc(N2CCOCC2)nc1)N(Cc1ccc(C(F)(F)F)cc1)c1nc2ccccn2c1Cl [Compound 93],26.9 nM,98%,–,–
CCc1c(N(Cc2ccc(C(F)(F)F)c(F)c2)S(=O)(=O)c2ccccc2)nc2c(C(F)(F)F)cccn12 [Compound 56],65 nM,99%,–,–
O=S(=O)(c1ccc(N2CCOCC2)nc1)N(Cc1ccc(OC(F)(F)F)cc1)c1nc2ccc(Cl)cn2c1Cl [Compound 76],70.5 nM,72%,–,–
O=S(=O)(c1ccccc1)N(Cc1cccc(C(F)(F)F)c1)c1nc2ccccn2c1C1CC1 [Compound 73],–,100%,–,–
"Cc1c(N(Cc2ccc(F)c(C(F)(F)F)c2)S(=O)(=O)c2ccc(-n3cccn3)cc2)nc2ccc(Cl)cn12 [Compound 102, N-(6-chloro-3-methylimidazo[1,2-a]pyridin-2-yl)-N-(4-fluoro-3-trifluoromethylbenzyl)-4-(1H-pyrazol-1-yl)benzenesulfonamide]",21.8 nM,100%,–,–
O=S(=O)(c1ccccc1)N(Cc1ccc(F)c(F)c1)c1nc2ccc(Cl)cn2c1Cl [Compound 18],78.6 nM,–,–,–
CCc1c(N(Cc2ccc(C(F)(F)F)c(F)c2)S(=O)(=O)c2ccc(N3CCOCC3)nc2)nc2ccc(Cl)cn12 [Compound 87],86.3 nM,86%,–,–
O=S(=O)(c1ccccc1)N(Cc1ccc(OC(F)(F)F)cc1)c1nc2ccc(C(F)(F)F)cn2c1Cl [Compound 61],–,47%,–,–
O=S(=O)(c1ccc(N2CCOCC2)nc1)N(Cc1ccc(C(F)(F)F)c(F)c1)c1nc2ccc(Cl)cn2c1Cl [Compound 74],62.6 nM,74%,–,–
Cc1c(N(Cc2ccc(C(F)(F)F)c(F)c2)S(=O)(=O)c2ccc(-n3cccn3)cc2)nc2ccc(Cl)cn12 [Compound 103],24.5 nM,98%,–,–

SMILES,IC50 [1],inhibition at 0.2 µM [2],% Inh (%) @ 0.2 μM [1],"inhibition at 0.2 µM (HEK293, read-out: % Inh (%) @ 0.2 μM)"
"CCc1c(N(CCC2CC2)S(=O)(=O)c2ccccc2)nc2c(C(F)(F)F)cccn12 [Compound 63, N-(2-Cyclopropylethyl)-N-(3-ethyl-8-trifluoromethylimidazo[1,2-a]pyridin-2-yl)benzenesulfonamide]",24.1 nM,99%,–,–
Cc1c(N(Cc2ccc(F)c(C(F)(F)F)c2)S(C)(=O)=O)nc2ccc(F)cn12 [Compound 23],–,58%,–,–
"COC(=O)c1ccc(S(=O)(=O)N(Cc2ccc(OC(F)(F)F)cc2)c2nc3ccc(Cl)cn3c2C)cc1 [Compound 110, Methyl 4-(N-(6-Chloro-3-methylimidazo[1,2-a]pyridin-2-yl)-N-(4-trifluoromethoxybenzyl)sulfamoyl)benzoate]",57.2 nM,82%,–,–
"Cc1c(N(Cc2ccc(OC(F)(F)F)cc2)S(=O)(=O)c2ccc(C(=O)O)cc2)nc2ccc(F)cn12 [Compound 120, Sodium 4-(N-(6-fluoro-3-methylimidazo[1,2-a]pyridin-2-yl)-N-(4-(trifluoromethoxy)benzyl)sulfamoyl)benzoate]",12.2 nM,–,–,102%
O=S(=O)(c1ccccc1)N(Cc1ccc(F)c(C(F)(F)F)c1)c1cn2ccccc2n1 [Compound 13],48.9 nM,–,–,–
Cc1c(N(Cc2ccc(OC(F)(F)F)cc2)S(=O)(=O)c2ccccc2)nc2ccc(Cl)cn12 [Compound 36],22.5 nM,100%,–,–
"Cc1c(N(Cc2ccc(C(F)(F)F)c(F)c2)S(=O)(=O)c2ccccc2)nc2ccc(C(F)(F)F)cn12 [Compound 100, N-(3-Fluoro-4-trifluoromethylbenzyl)-N-(3-methyl-6-trifluoromethylimidazo[1,2-a]pyridin-2-yl)benzenesulfonamide]",–,31%,–,–
Cc1c(N(Cc2cccc(C(F)(F)F)c2)S(=O)(=O)c2ccccc2)nc2ccc(Cl)cn12 [Compound 44],18.3 nM,100%,–,–
Cc1c(N(Cc2ccc(C(F)(F)F)c(F)c2)S(=O)(=O)c2ccccc2)nc2cc(C(F)(F)F)ccn12 [Compound 101],–,22%,–,–
CCc1c(N(CCC(F)(F)F)S(=O)(=O)c2ccccc2)nc2c(C(F)(F)F)cccn12 [Compound 66],–,83%,–,–
Cc1c(N(Cc2ccc(C(F)(F)F)c(F)c2)S(=O)(=O)c2ccccc2)nc2ccc(F)cn12 [Compound 21],10.6 nM and 12.4 nM,–,–,–
Cc1c(N(Cc2ccc(OC(F)(F)F)cc2)S(C)(=O)=O)nc2ccc(F)cn12 [Compound 22],–,51%,–,–
Cc1ccc2nc(N(Cc3ccc(C(F)(F)F)c(F)c3)S(=O)(=O)c3ccc(F)cc3)c(C)n2c1 [Compound 68],41.6 nM,100%,–,–
Cc1c(N(Cc2ccc(C(F)(F)F)cc2)S(=O)(=O)c2ccccc2)nc2ccc(Cl)cn12 [Compound 43],24.3 nM,99%,–,–
O=S(=O)(c1ccc(N2CCOCC2)nc1)N(Cc1cccc(C(F)(F)F)c1)c1nc2ccccn2c1Cl [Compound 94],48.4 nM,97%,–,–
COC(=O)c1ccc(S(=O)(=O)N(Cc2ccc(F)c(F)c2)c2nc3ccc(Cl)cn3c2C)cc1 [Compound 111],81.5 nM,73%,–,–

# More lines, in order of falling IC50 [1], values ahead:
IC50 [1],inhibition at 0.2 µM [2],SMILES,% Inh (%) @ 0.2 μM [1],"inhibition at 0.2 µM (HEK293, read-out: % Inh (%) @ 0.2 μM)"
16.7 nM,–,CS(=O)(=O)N(Cc1ccc(OC(F)(F)F)cc1)c1nc2ccccn2c1Br [Compound 4],–,–
16 nM,–,Cc1c(N(Cc2ccc(F)c(C(F)(F)F)c2)S(=O)(=O)c2ccccc2)nc2cc(Cl)ccn12 [Compound 15],–,–
14.4 nM,–,Cc1c(N(Cc2ccc(OC(F)(F)F)cc2)S(=O)(=O)c2ccccc2)nc2ccc(F)cn12 [Compound 19],–,–
14.2 nM,100%,CCc1c(N(Cc2ccc(F)c(C(F)(F)F)c2)S(=O)(=O)c2ccccc2)nc2ccc(Cl)cn12 [Compound 82],–,–
13.6 nM,–,O=S(=O)(c1ccc(F)cc1)N(Cc1ccc(OC(F)(F)F)cc1)c1nc2ccccn2c1Cl [Compound 9],–,–
13.3 nM,99%,Cc1cccc2nc(N(Cc3ccc(C(F)(F)F)c(F)c3)S(=O)(=O)c3ccccc3)c(C)n12 [Compound 49],–,–
12.5 nM,100%,Cc1cccn2c(C)c(N(Cc3ccc(C(F)(F)F)c(F)c3)S(=O)(=O)c3ccccc3)nc12 [Compound 32],–,–
11.5 nM,100%,O=S(=O)(c1ccc(N2CCOCC2)nc1)N(Cc1ccc(OC(F)(F)F)cc1)c1nc2ccccn2c1Br [Compound 84],–,–
9.43 nM,101%,CC(C)c1c(N(Cc2ccc(OC(F)(F)F)cc2)S(=O)(=O)c2ccccc2)nc2ccccn12 [Compound 52],–,–
8.01 nM,100%,Cc1ccn2c(C)c(N(Cc3ccc(F)c(C(F)(F)F)c3)S(=O)(=O)c3ccccc3)nc2c1 [Compound 28],–,–
7 nM,99%,O=S(=O)(c1ccc(-n2cccn2)cc1)N(Cc1ccc(F)c(C(F)(F)F)c1)c1nc2ccccn2c1Cl [Compound 95],–,–
5.68 nM,–,Cc1c(N(Cc2ccc(OC(F)(F)F)cc2)S(=O)(=O)c2ccccc2)nc2ccccn12 [Compound 11],–,–
5.5 nM,100%,O=S(=O)(c1ccc(-n2cccn2)cc1)N(Cc1ccc(C(F)(F)F)c(F)c1)c1nc2ccccn2c1Cl [Compound 96],–,–
5.3 nM,–,O=S(=O)(c1ccccc1)N(Cc1ccc(OC(F)(F)F)cc1)c1nc2ccccn2c1Br [Compound 5],–,–
4.04 nM,99%,O=S(=O)(c1ccc(-n2cccn2)cc1)N(Cc1ccc(C(F)(F)F)cc1)c1nc2ccccn2c1Cl [Compound 98],–,–
3.19 nM,101%,CC(C)c1c(N(Cc2ccc(C(F)(F)F)cc2)S(=O)(=O)c2ccccc2)nc2ccccn12 [Compound 53],–,–
3.17 nM,99%,O=S(=O)(c1ccc(-n2cccn2)cc1)N(Cc1ccc(F)c(C(F)(F)F)c1)c1nc2ccccn2c1Br [Compound 79],–,–
1.94 nM,99%,O=S(=O)(c1ccc(-n2cccn2)cc1)N(Cc1ccc(C(F)(F)F)c(F)c1)c1nc2ccccn2c1Br [Compound 75],–,–
1.8 nM,–,O=S(=O)(c1ccccc1)N(Cc1ccc(OC(F)(F)F)cc1)c1nc2ccccn2c1Cl [Compound 3],–,–

# Reference: patent US9067935B2 (Janssen Pharmaceutica, NV, priority 2010, dated 2015)
